Laboratory results as given in publication PMC8258697 (The Journal of Biological Chemistry, 2021).
Substitutions are numbered along the chain they refer to.

How the values were obtained:
[1] = biological target: T1, RXRα wildtype LBD (Homo sapiens, UniProt P19793); test: Isothermal titration calorimetry, RXRα wildtype LBD; assay type: binding; conditions: 25°C
T1 construct: MBP-Asn10-His8-TEV site (N, cleaved yes); made in house; host or cells: E. coli T7 express (co-expressed with GroEL/ES)
T1 sequence (P19793 223-462): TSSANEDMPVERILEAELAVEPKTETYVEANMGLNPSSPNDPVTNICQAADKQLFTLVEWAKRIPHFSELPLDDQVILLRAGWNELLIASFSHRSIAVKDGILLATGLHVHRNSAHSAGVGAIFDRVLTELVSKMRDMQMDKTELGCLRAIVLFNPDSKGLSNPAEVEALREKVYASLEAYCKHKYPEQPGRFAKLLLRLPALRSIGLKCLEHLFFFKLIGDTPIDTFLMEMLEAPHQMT
Experimental: (§1) SI method 1: LBD pulldown
(§2) In order to verify proper dimer formation capability of the majority of the protein preparation a pulldown experiment was performed. Therefore, small centrifugal filter columns (nylon membrane with […] pore size; VWR) were loaded with 20 µl of Pierce® high capacity streptavidin agarose beads (Thermo Scientific) equilibrated in HTRF buffer [25 mM HEPES pH 7.5, 150 mM KF, 10% (w/v) glycerol, 5 mM DTT (fresh)], then 20 µl of a mixture of biotin coupled RXRα LBD (4 µg) and the respective PPAR LBD (1.4 µg) was applied. After incubation for 10 min at room temperature followed by centrifugation for 2 min and 900 x g the input mixture as well as the flowthrough was analyzed via SDS PAGE. Gels were scanned using an Li-Cor Odyssey imager (LI-COR® Biosciences GmbH, Germany). […]
(§3) The heats of dilution resulting from titrating one of the RXRα LBD proteins into the cell containing only buffer were recorded separately and subtracted from the raw ITC data obtained with compound. Data were analyzed using the NanoAnalyze software package (version 3.7.5). […] Free energy change (ΔG) was calculated using the equation […]
(§4) and from there the entropy (ΔS) was calculated from […]
25 injections of 2 µl were performed after an initial injection of 0.5 µl. […] The heats of dilution resulting from titrating of protein into buffer were recorded separately and subtracted. […]

[2] = biological target: T2, RXRα total mutant LBD (Homo sapiens, UniProt P19793, E453R/F450Y/K284E/V280T/V298T); test: Isothermal titration calorimetry, RXRα total mutant LBD; assay type: binding; conditions: 25°C
T2 construct: MBP-Asn10-His8-TEV site (N, cleaved yes); made in house; host or cells: E. coli T7 express (co-expressed with GroEL/ES)
T2 sequence (P19793 223-462 V280T/K284E/V298T/F450Y/E453R): T1 sequence (P19793 223-462) with V58T, K62E, V76T, F228Y, E231R
Experimental: as §1
as §2, with “Germany). Missing bands in comparison to the input control were interpreted in two different ways.” for “Germany).”
as §3, §4
µM SR11237. […] The heats of dilution resulting from titrating of protein into buffer were recorded separately and subtracted. […]

[3] = biological target: T3, PPARγ LBD (Homo sapiens, UniProt P37231); test: Two-dimensional titration of SR11237 and unlabeled mutant RXRα LBD: CBP-1 recruitment by sGFP-PPARγ LBD (HTRF); assay type: biochemical; conditions: combined addition of SR11237 and RXRα at concentrations equal to PPARγ (100 nM) and higher
T3 construct: MBP-Asn10-His8-TEV site (N, cleaved yes); made in house; host or cells: E. coli T7 express (co-expressed with GroEL/ES)
T3 sequence (P37231 1-505): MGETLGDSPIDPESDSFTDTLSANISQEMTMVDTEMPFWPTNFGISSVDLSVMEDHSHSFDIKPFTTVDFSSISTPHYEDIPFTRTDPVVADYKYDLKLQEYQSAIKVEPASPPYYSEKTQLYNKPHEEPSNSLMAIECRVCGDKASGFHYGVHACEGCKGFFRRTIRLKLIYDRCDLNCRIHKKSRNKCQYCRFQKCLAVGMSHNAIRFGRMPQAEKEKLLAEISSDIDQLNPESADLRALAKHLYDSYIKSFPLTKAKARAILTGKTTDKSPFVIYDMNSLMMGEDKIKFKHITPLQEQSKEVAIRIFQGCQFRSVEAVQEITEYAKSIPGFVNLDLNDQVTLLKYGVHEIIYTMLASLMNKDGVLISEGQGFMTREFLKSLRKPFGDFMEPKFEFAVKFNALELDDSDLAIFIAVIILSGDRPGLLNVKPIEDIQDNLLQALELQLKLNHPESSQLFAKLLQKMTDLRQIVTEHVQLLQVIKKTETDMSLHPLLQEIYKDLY

Which “binding affinity (ITC)” value [1] does the source give for `CC1(C)CCC(C)(C)c2cc(C3(c4ccc(C(=O)O)cc4)OCCO3)ccc21` [SR11237] here?
The value was “comparable affinity”.

What about the “binding affinity (ITC)” value [2] of the same molecule?
Its value is “comparable affinity”.

And the “CBP-1 recruitment relative to full activation of monomeric PPARγ with rosiglitazone” value [3]?
Its value is “up to 26%”.
